The record followed here is US20050118204A1, “Methods for controlling membrane permeability of a membrane permeable substance and screening methods for a membrane permeable substance” (priority 2003, published 2005).

Series [1] can be described thus: Phase change of cubic phase of lecithin/sodium cholate system on adding sucrose. Format: physicochemical. To be noted: cubic phase of 22.5% water, 50.4% phosphatidylcholine, 27.1% sodium cholate by weight at 25° C. From the text: The suppressing effect of incorporation of an Arg oligomer was investigated upon adding sucrose as a permeation suppressing substance, which was disclosed as a substance negatively changing the membrane curvature in Biochimica et Biophysica Acta (BBA)—Biomembranes, vol. 1285, Issue 1, p. 109-122 (1996). The inventors confirmed that a cubic phase of lecithin/sodium cholate system was constituted by utilizing lecithin (phosphatidylcholine) as a major constitutional component of the phospholipid constituting a cell membrane, and the cubic phase was changed to a hexagonal phase by adding sucrose thereto (as described in Biochim. Biophys. Acta., vol. 125, p. 563-580 (1966)). The phase change was determined by a change of the shape observed by a polarization microscope, the presence or absence of polarization with a polarizing film (a lamellar phase and a hexagonal phase were viewed brightly owing to the polarization thereof, but a cubic phase is viewed darkly), or a difference in spectrum patterns obtained by small angle X-ray scattering. The cubic phase was formed by mixing 22.5% by weight of water, 50.4% by weight of phosphatidylcholine and 27.1% by weight of sodium cholate at 25° C. When sucrose was added to the cubic phase in a proportion of 3.5% by weight or more, the cubic phase was changed to a lamellar phase. […]

In series [2] the test system is dermal fibroblast. Description: Suppressing effect of incorporation of Arg oligomer using substance negatively changing membrane curvature (Test Example 6). It is filed as cell-based. To be noted: Arg oligomer 1 μM, 10 minutes. Here is the method: The suppressing effect of incorporation of an Arg oligomer was evaluated by using skin-related cells (dermal fibroblast). Dermal fibroblast (Fibrocell, produced by Kurabo Industries, Ltd.) was seeded on a 6-well plate in an amount of 3×10^4 (cell/well) and cultivated with D-MEM Culture Medium (Dulbecco's modified Eagle medium, containing 10% serum, penicillin: 50 U/mL, streptomycin: 50 μg/mL) for 2 days. After cultivating for 2 days, the culture medium was removed from the wells of the 6-well plate, and D-MEM Culture Medium adjusted to contain sucrose in a concentration of 2.5, 5 or 10 mM was added. After incubating for 5 minutes (37° C., 5% CO2), an Arg oligomer was added to the respective plates to a concentration of 1 μM and incubated for 10 minutes. After lapsing 10 minutes, the culture medium was removed by suction, and the contents of the wells were rinsed twice with an isotonic phosphate buffer solution. 500 μL of 1% Triton X-100 was added to the respective wells, followed by shaking at room temperature under light shielding for 1 hour, to lyse the cells. After thoroughly stirring by pipetting, the contents of the respective wells were transferred by 200 μL to a 96-well black cell, and fluorescence of 535 nm was measured under excitation with a spectrophotofluorometer (microplate reader, Wallac 1420 ARVOsx) at 485 nm. The addition of sucrose decreased the fluorescence intensity depending upon the concentration of sucrose by 8% with a sucrose concentration of 2.5 mM, 19% with 5 mM and 37% with 10 mM, in comparison to the case where no sucrose was added. According to the aforementioned experimentation, sucrose is a compound changing the membrane curvature to concave, and it is considered that the change of the membrane suppresses the membrane permeability of the Arg oligomer.

The test system of series [3] is dermal fibroblast. Description: Enhancing effect of incorporation of Arg oligomer using substance positively changing membrane curvature (Test Example 5). Format: cell-based. To be noted: Arg oligomer 1 μM, 10 minutes.
Procedure: The enhancing effect of incorporation of an Arg oligomer was evaluated by using skin-related cells (dermal fibroblast). Dermal fibroblast (Fibrocell, produced by Kurabo Industries, Ltd.) was seeded on a 6-well plate in an amount of 3×10^4 (cell/well) and cultivated with D-MEM Culture Medium (Dulbecco's modified Eagle medium, containing 10% serum, penicillin: 50 U/mL, streptomycin: 50 μg/mL) for 2 days. After cultivating for 2 days, the culture medium was removed from the wells of the 6-well plate, and D-MEM Culture Medium adjusted to contain 1,3-butanediol in a concentration of 2.5, 5 or 10 mM was added. After incubating for 5 minutes (37° C., 5% CO2), an Arg oligomer was added to the respective plates to a concentration of 1 μM and incubated for 10 minutes. After 10 minutes, the culture medium was removed by suction, and the wells were rinsed twice with an isotonic phosphate buffer solution. 500 μL of 1% Triton X-100 was added to the respective wells, followed by shaking at room temperature under light shielding for 1 hour, to lyse the cells. After thoroughly stirring by pipetting, the contents of the respective cells were transferred by 200 μL to a 96-well black cell, and fluorescence of 535 nm was measured under excitation with a spectrophotofluorometer (microplate reader, Wallac 1420 ARVOsx) at 485 nm.
For the next series, the system named is erythrocytes. In words: Influence of osmotic pressure on membrane permeation of Tat Peptide (48-60) into erythrocyte (Test Example 4). It is filed as cell-based, sheep. To be noted: 10 μM, 37° C, 10 minutes; hypotonic versus isotonic phosphate buffer solution. How it is done:
5 mL of preserved sheep blood (available from Japan Biomaterial Center Co., Ltd.) was placed in a tube, and after subjecting to centrifugal separation (4° C., 3,000 g, 3 min), the supernatant fluid was removed. 5 mL of physiological saline was added thereto, followed by lightly stirring, and then subjected to centrifugal separation (4° C., 3,000 g, 3 min). The same operation was repeated to obtain an erythrocyte pellet. 400 μL of an isotonic phosphate buffer solution was added to 400 μL of the erythrocyte pellet, and after stirring, the mixture was subjected to centrifugal separation (4° C., 3,000 g, 3 min), followed by removing the supernatant fluid. The same operation was repeated to obtain an erythrocyte pellet for evaluation. […] The solution in the Coulter Counter® is replaced by a hypotonic phosphate buffer solution (70% hypotonicity), and the diameter of the erythrocytes floating in the hypotonic phosphate buffer solution was measured in the same manner as in the case of the isotonic phosphate buffer solution. The diameter of the erythrocytes in a hypertonic phosphate buffer solution (130% hypertonicity) was also measured in the same manner. […]
An erythrocyte pellet for evaluation was prepared in the same manner as in Test Example 1. […] The supernatant fluid was measured for fluorescence intensity with a microplate reader or a spectrophotofluorometer. […]

Regarding `OC[C@H]1O[C@@](CO)(O[C@H]2O[C@H](CO)[C@@H](O)[C@H](O)[C@H]2O)[C@@H](O)[C@@H]1O` [sucrose], the “proportion added at which the cubic phase was changed to a lamellar phase” value in series [1] is ≥ 3.5 % by weight. The “decrease of fluorescence intensity (Arg oligomer incorporation) versus no sucrose” value in the series with dermal fibroblast [2] (sucrose 2.5 mM) amounted to 8%; in the series with dermal fibroblast [2] (sucrose 5 mM) it was 19%; with dermal fibroblast [2] (sucrose 10 mM), 37%.

As to `N#C[S-].[Na+]` [sodium thiocyanate], the “increase of fluorescence intensity (Arg oligomer incorporation) versus no addition” value is “about 10%” with dermal fibroblast [3] (2.5 mM of added substance) and “about 15%” with dermal fibroblast [3] (10 mM of added substance).

As to `CC(O)CCO` (centres unmarked) [1,3-butanediol], the “increase of fluorescence intensity (Arg oligomer incorporation) versus no addition” value in the series on dermal fibroblast [3] (2.5 mM of added substance) is on record as “about 15%”.

Turning to “rhodamine-GABA-GRKKRRQRRRPPQC-NH2.8CF3COOH [Tat Peptide]”, the “amount of the Tat Peptide which penetrated into the erythrocytes on lowering the osmotic pressure, by fluorescence intensity” value in the series with erythrocytes is “increased”.
